The values below come from patent US10357481B2 (MERCK SHARP & DOHME CORP., priority 2015, dated 2019).

The test concerns the target T1, human PDE2A1 (Homo sapiens, UniProt O00408).
T1 construct: GST; purchased BPS Bioscience (San Diego, Calif.) 60020; host or cells: insect cells
Description: IMAP FP PDE selectivity panel, human PDE2A1. Particulars: Lab B; read-out: Human PDE2 Ki (nM) Lab B. It is filed as biochemical. The gist of the method:
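IMAP FP read-out, run at room temperature in parallel with PDE1–11: enzyme at 20% substrate conversion, 50 nM FAM-cAMP containing 1000 nM cGMP, Tris pH 7.2/MgCl2/DTT buffer. Compounds as ten 3-fold dilutions. Reaction 60 min, stopped with binding reagent for 1 h before polarization measurement.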

T1 sequence (O00408 1-920 isoform O00408-2): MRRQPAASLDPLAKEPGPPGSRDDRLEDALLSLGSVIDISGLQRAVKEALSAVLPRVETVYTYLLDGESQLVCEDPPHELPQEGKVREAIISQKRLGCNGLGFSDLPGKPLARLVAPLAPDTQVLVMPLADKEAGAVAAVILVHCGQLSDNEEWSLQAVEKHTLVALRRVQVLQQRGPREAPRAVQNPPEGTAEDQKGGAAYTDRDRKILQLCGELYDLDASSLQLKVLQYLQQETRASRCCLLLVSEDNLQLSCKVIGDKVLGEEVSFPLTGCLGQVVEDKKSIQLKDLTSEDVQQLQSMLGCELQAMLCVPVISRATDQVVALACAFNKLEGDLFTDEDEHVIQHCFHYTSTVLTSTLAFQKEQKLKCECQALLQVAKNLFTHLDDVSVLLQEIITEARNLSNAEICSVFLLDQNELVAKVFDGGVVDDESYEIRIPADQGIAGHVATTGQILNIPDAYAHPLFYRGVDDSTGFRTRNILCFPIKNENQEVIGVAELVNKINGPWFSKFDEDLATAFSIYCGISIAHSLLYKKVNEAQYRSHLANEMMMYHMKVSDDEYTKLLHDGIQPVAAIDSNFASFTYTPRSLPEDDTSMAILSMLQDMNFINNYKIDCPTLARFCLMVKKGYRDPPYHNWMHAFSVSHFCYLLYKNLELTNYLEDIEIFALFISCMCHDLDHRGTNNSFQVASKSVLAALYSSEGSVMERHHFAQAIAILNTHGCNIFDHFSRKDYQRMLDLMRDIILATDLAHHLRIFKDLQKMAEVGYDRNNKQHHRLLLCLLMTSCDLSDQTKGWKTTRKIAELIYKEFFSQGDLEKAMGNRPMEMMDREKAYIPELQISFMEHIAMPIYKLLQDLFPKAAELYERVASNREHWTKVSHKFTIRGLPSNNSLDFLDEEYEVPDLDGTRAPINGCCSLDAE

With `Cc1cc(N[C@@H](c2ccc(SC(F)(F)F)cc2)C(C)(C)C)n2ncnc2n1` [Example 29, N-[(1R)-2,2-Dimethyl-1-{4-[(trifluoromethyl)sulfanyl]phenyl}propyl]-5-methyl[1,2,4]triazolo[1,5-a] pyrimidin-7-amine], the Ki was 2.1 nM.
For `Cc1cc(NC(c2ccc(C(F)F)cc2)C(C)(C)O)n2ncnc2n1` (single isomer, unassigned) [Example 108, (1S or R)-1-[4-(Difluoromethyl)phenyl]-2-methyl-1-[(5-methyl [1,2,4]triazolo [1,5-a]pyrimidin-7-yl)amino] propan-2-ol] the value was 49 nM; for `CC(C)(O)[C@H](Nc1cc(C(F)(F)F)nc2ncnn12)c1ccc(S(F)(F)(F)(F)F)cc1` (single isomer, unassigned) [Example 178], 421 nM; for `Cc1cc(NC(c2ccc(C(F)(F)F)cn2)C(C)C)n2ncnc2n1` (single isomer, unassigned) [Example 212, (S)- or (R)-5-Methyl-N-(2-methyl-1-(5-(trifluoromethyl)pyridin-2-yl)propyl)-[1,2,4]triazolo [1,5-a]pyrimidin-7-amine], 310 nM.
For `Cc1cc(NC2(c3ccc(C(F)(F)F)c(F)c3)CC2)n2nc(C(F)F)nc2n1` [Example 201, 2-(Difluoromethyl)-N-(1-(3-fluoro-4-(trifluoromethyl)phenyl)cyclopropyl)-5-methyl-[1,2,4]triazolo [1,5-a]pyrimidin-7-amine] the value was 131 nM; for `Cc1cc(NC(c2ccc(S(F)(F)(F)(F)F)cc2)C(C)(C)O)n2ncnc2n1` (single isomer, unassigned) [Example 116, (1S or R)-2-Methyl-1-[(5-methyl[1,2,4]triazolo[1,5-a]pyrimidin-7-yl)amino]-1-[4-(pentafluoro-λ^6-sulfanyl)phenyl] propan-2-ol], over 2960 nM; for `Cc1cc(N[C@@H](c2ccc(C(F)(F)F)c(F)c2)C2CC2)n2ncnc2n1` [Example 39, N-{(R)-Cyclopropyl[3-fluoro-4-(trifluoromethyl)phenyl]methyl}-5-methyl[1,2,4]triazolo[1,5-a] pyrimidin-7-amine], 49 nM.
For `Cc1cc(N[C@@H](c2ccc(C(F)(F)F)c(F)c2)C2(C)CC2)n2ncnc2n1` [Example 43, N-[(R)-[3-Fluoro-4-(trifluoromethyl)phenyl](1-methylcyclopropyl)methyl]-5-methyl[1,2,4]triazolo[1,5-a] pyrimidin-7-amine] the value was 23 nM.
With `Cc1cc(N[C@@](C)(c2ccc(OC(F)(F)F)cc2)C(C)(C)O)n2ncnc2n1` [Example 155, (3S)-2-Methyl-3-[(5-methyl[1,2,4]triazolo[1,5-a]pyrimidin-7-yl)amino]-3-[4-(trifluoromethoxy)phenyl]butan-2-ol], the Ki was 525 nM.
As to `COc1cc(N[C@H](c2ccc(C(F)(F)F)c(F)c2)C(C)(C)O)n2ncnc2n1` (single isomer, unassigned) [Example 236], the Ki is 210 nM.
The same measure for `Cc1cc(NC(C)(C)c2ccc(C(F)(F)F)cc2F)n2ncnc2n1` [Example 52, N-{1-[2-Fluoro-4-(trifluoromethyl)phenyl]-1-methylethyl}-5-methyl [1,2,4]triazolo[1,5-a]pyrimidin-7-amine]: 78 nM.
`CC(C)(O)C(Nc1cc(C(F)F)nc2ncnn12)c1ccc(OC(F)F)cc1Cl` (single isomer, unassigned) [Example 184, (1R or S)-[2-Chloro-4-(difluoromethoxy)phenyl]-1-{[5-(difluoromethyl) [1,2,4]triazolo [1,5-a]pyrimidin-7-yl]amino}-2-methylpropan-2-ol]: the Ki was 68 nM.
The same measure for `CC(C)(O)[C@@H](Nc1cc(C(F)(F)F)cc2ncnn12)c1ccc(OC(F)(F)F)cc1F` [Example 278, (1S)-1-[2-Fluoro-4-(trifluoromethoxy)phenyl]-2-methyl-1-{[7-(trifluoromethyl) [1,2,4]triazolo[1,5α]pyridin-5-yl]amino}propan-2-ol]: 92 nM; for `Cc1cc(N[C@@H](c2ccc(C3CC3)cc2)C2CC2)n2ncnc2n1` [Example 42, N-[(R)-Cyclopropyl(4-cyclopropylphenyl)methyl]-5-methyl[1,2,4]triazolo[1,5-a] pyrimidin-7-amine]: 20 nM; for `Cc1cc(N[C@H](C)c2ccc(OC(F)(F)F)c(Cl)c2)n2ncnc2n1` [Example 9, N-{(1R)-1-[3-Chloro-4-(trifluoromethoxy)phenyl]ethyl}-5-methyl[1,2,4]triazolo[1,5-a] pyrimidin-7-amine]: 138 nM.
Regarding `Cc1cc(NC(C)(C)c2ccc(C(F)(F)F)cc2)n2ncnc2n1` [Example 53, 5-Methyl-N-{1-methyl-1-[4-(trifluoromethyl)phenyl]ethyl} [1,2,4]triazolo[1,5-a]pyrimidin-7-amine], the inhibitory constant (Ki) was determined as 99 nM.
The same measure for `C[C@@H](Nc1cc(CO)cc2ncnn12)c1ccc(OC(F)(F)F)cc1` [Example 271, [5-({(1R)-1-[4-(Trifluoromethoxy)phenyl]ethyl}amino)[1,2,4]triazolo[1,5-a]pyridin-7-yl] methanol]: 530 nM.
The same measure for `CC(C)(O)[C@@H](Nc1cc(C(F)F)cc2ncnn12)c1ccc(OC(F)(F)F)cc1F` [Example 281, (1S)-1-{[7-(Difluoromethyl) [1,2,4]triazolo[1,5-a]pyridin-5-yl]amino}-1-[2-fluoro-4-(trifluoromethoxy)phenyl]-2-methylpropan-2-ol]: 40 nM.
For `CC(C)(O)C(Nc1cc(C(F)(F)F)nc2ncnn12)c1ccc(CC(F)(F)F)cc1` (single isomer, unassigned) [Example 169, (1S or R)-2-Methyl-1-[4-(2,2,2-trifluoroethyl)phenyl]-1-{[5-(trifluoromethyl) [1,2,4]triazolo [1,5-a]pyrimidin-7-yl]amino} propan-2-ol] the value was 50 nM; for `Cc1cc(NC2(c3ccc(C(F)(F)F)c(F)c3)CC2)n2nc(CO)nc2n1` [Example 196, (7-(1-(3-Fluoro-4-(trifluoromethyl)phenyl)cyclopropylamino)-5-methyl-[1,2,4]triazolo [1,5-a]pyrimidin-2-yl)methanol], 321 nM; for `Cc1cc(NC2(c3ccc(SC(F)(F)F)cc3)CCC2)n2ncnc2n1` [Example 65, 5-Methyl-N-(1-{4-[(trifluoromethyl)sulfanyl]phenyl}cyclobutyl)[1,2,4] triazolo[1,5-a]pyrimidin-7-amine], 75 nM.
As for `CC(O)c1cc(NC2(c3ccc(C(F)(F)F)c(F)c3)CC2)n2ncnc2c1` (centres unmarked) [Example 275, 1-(5-((1-(3-Fluoro-4-(trifluoromethyl)phenyl)cyclopropyl)amino)-[1,2,4]triazolo[1,5-a]pyridin-7-yl)ethanol], the Ki amounted to 111 nM.
For `CC(C)c1cc(NC(c2ccc(OC(F)(F)F)c(F)c2)C(C)(C)O)n2ncnc2n1` (single isomer, unassigned) [Example 138, (1S or R)-1-[3-Fluoro-4-(trifluoro-methoxy)phenyl]-2-methyl-1-{[5-(1-methylethyl) [1,2,4]triazolo [1,5-a]pyrimidin-7-yl]amino} propan-2-ol] the value was about 1570 nM; for `CC(C)(O)C(Nc1cc(C(F)F)nc2ncnn12)c1ccc(OC(F)(F)F)cc1F` (single isomer, unassigned) [Example 186, (1R or S)-{[5-(Difluoromethyl) [1,2,4]triazolo [1,5-a]pyrimidin-7-yl]amino}-1-[2-fluoro-4-(trifluoromethoxy)phenyl]-2-methylpropan-2-ol], 1900 nM.
As for `Cc1cc(N[C@H](C)c2ccc(C3CC3)c(F)c2)n2ncnc2n1` [Example 14, N-[(1R)-1-(4-Cyclopropyl-3-fluorophenyl)ethyl]-5-methyl[1,2,4]triazolo[1,5-a] pyrimidin-7-amine], the Ki came to 48 nM.
The same measure for `OCc1cc(NC2(c3ccc(C(F)(F)F)c(F)c3)CC2)n2ncnc2n1` [Example 78, [7-({1-[3-Fluoro-4-(trifluoromethyl)phenyl]cyclopropyl}amino)[1,2,4]triazolo[1,5-a]pyrimidin-5-yl]methanol]: 92 nM; for `CCCc1nc2nc(C)cc(N[C@@H](c3ccc(C(F)(F)F)c(F)c3)C(C)(C)C)n2n1` [Example 204, (R)-N-(1-(3-Fluoro-4-(trifluoromethyl)phenyl)-2,2-dimethylpropyl)-5-methyl-2-propyl-[1,2,4]triazolo [1,5-a]pyrimidin-7-amine]: 17 nM.
The same measure for `C[C@@H](Nc1cc(CO)nc2ncnn12)c1ccc(C(F)(F)F)c(F)c1` [Example 80, [7-({(1R)-1-[3-Fluoro-4-(trifluoromethyl)phenyl]ethyl}amino)[1,2,4]triazolo[1,5-a]pyrimidin-5-yl]methanol]: 387 nM; for `Cc1cc(N(C)C(c2ccc(OC(F)(F)F)c(F)c2)C(C)(C)O)n2ncnc2n1` (single isomer, unassigned) [Example 248, (S)- or (R)-1-(3-Fluoro-4-(trifluoromethoxy)phenyl)-2-methyl-1-(methyl(5-methyl-[1,2,4]triazolo [1,5-a]pyrimidine-7-yl)amino) propan-2-ol]: over 2960 nM.
As for `CCOc1cc(N[C@@H](c2ccc(C(F)(F)F)c(F)c2)C(C)(C)C)n2ncnc2n1` [Example 234, (R)-5-Ethoxy-N-(1-(3-fluoro-4-(trifluoromethyl)phenyl)-2,2-dimethylpropyl)-[1,2,4]triazolo [1,5-a]pyrimidin-7-amine], the Ki turned out to be 1230 nM.
`Cc1cc(NC(c2ccc(OC(F)(F)F)c(F)c2)C(C)(C)O)n2nc(C)nc2n1` (single isomer, unassigned) [Example 133, (1R or S)-1-[(2,5-Dimethyl[1,2,4]triazolo[1,5-a]pyrimidin-7-yl)amino]-1-[3-fluoro-4-(tri-fluoromethoxy)phenyl]-2-methylpropan-2-ol]: the Ki stood at 18 nM.
As for `CC(C)(C)[C@@H](Nc1cncc2ncnn12)c1ccc(C(F)(F)F)c(F)c1` [Example 284], the Ki was 156 nM.
